# Laboratory results reported in US20070197591A1, “USE OF PALIPERIDONE FOR THE TREATMENT OF A MENTAL DISORDER IN A PSYCHIATRIC PATIENT WITH REDUCED HEPATIC FUNCTION” (priority 2005, published 2007).
# Assay: clinical
# Design: species or system human
# Conditions: in vivo
# Excerpt: Objectives: to investigate the metabolic pathways of paliperidone and excretion of paliperidone and its metabolites in healthy adult male subjects, both CYP2D6 poor and extensive metabolizers, after administration of a single 1-mg oral dose of ^14C-paliperidone. In addition, to evaluate the safety and tolerability of paliperidone, as well as the relationship between genotypes (CYP2D6, CYP3A4, CYP3A5, UGT1A1, and UGT1A6) and exposure to paliperidone and its metabolites.
# Methodology: Single-center, single-dose open-label study of the absorption, metabolism, and excretion (AME) of paliperidone in healthy men (3 extensive and 3 poor metabolizers based on CPY2D6 phenotype). […] Each subject received a single oral dose of ^14C-paliperidone with total radioactivity below […] (16 μCi). Blood samples for plasma pharmacokinetic profile were obtained immediately before study drug administration and 0.5, 1, 1.5, 3, 6, 12, 16, 36, 48, 72, 96, 120, 144 and 168 hours postdose. Blood samples were obtained 2, 4, 8, and 24 hours postdose for determination of ^14C in whole blood. Samples for determination of serum creatinine were obtained 2, 4, 8, and 24 hours postdose. Urine was collected immediately prior to drug administration and from 0-4, 4-8, 8-12, 12-16, 16-24, 24-36, 36-48, 48-72, 96-120, 120-144, and 144-168 hours after study drug administration. Fecal samples were colleted per each stool, once before study drug administration and in the period from 0-168 hours after study drug administration. Collections of urine and feces (per 24 hours) were to continue beyond 168 hours, to a maximum of 336 hours (Day 15) for subjects who excrete radioactivity slowly (2 latest 24-hour urine collections each >2% of total radioactive dose) or have <7 feces stool samples over the 0 to 168-hour period. ^14C radioactivity was measured in plasma, urine, and feces. Aliquots of the 0- through 24-hour urine collections were analyzed for cretinine. Plasma concentrations of paliperidone and risperidone were determined by means of a validated LC-MS/MS method. The ^14C-labeled moiety in plasma and urine was determined by liquid scintillation counting. For all plasma samples, the lower limits of quantification for paliperidone and risperidone were 0.100 ng/mL. For all plasma and urine samples the lower limits of quantification for ^14C-palieridone was 72 dpm/mL (=2.0 n g-eq/mL).
# Number of Subjects (Planned and Analyzed): Six healthy men, 3 extensive and 3 poor metabolizers based on CYP2D6 phenotype were to participate in the study. Five subjects, 3 extensive and 2 poor metabolizers, received a single dose of ^14C-paliperidone, completed the study (i.e., completed all assessments through Day 8) and were considered valuable for safety (the Safety Analysis Set), as well as for pharmacokinetics.
# Test Product, Dose and Mode of Administration Batch No.: Single oral 0.988-mg dose of ^14C-paliperidone, oral solution (aqueous formulation at a final concentration of 0.0984 mg/mL). Batch No.: unlabeled paliperidone oral solution: ZR076477EIA031 (manufacturing date: 23 Apr. 2003, retest date: 23 Oct. 2004): ^14C-paliperidone: 1763 (expiration date: not applicable)
# Criteria for Evaluation: Pharmacokinetics: Plasma paliperidone. ^14C radioactivity and metabolite profiles were determined. Plasma Cmax, tmax, AUClast, AUC24, AUC∞, λZ, t1/2term, CL/F of ^14C and paliperidone were estimated by non-compartmental analysis. Based on the individual urine excretion data and on the serum creatinine concentrations, Ae, Ae, % dose, CLR, CLR,24h and CLer and paliperidone and CLGFR, and CLact of paliperidone were estimated. The excretion half-life of ^14C in urine was also estimated based on excretion rate-time profiles.
# Statistical Methods: Pharmacokinetics: Plasma concentrations of ^14C and paliperdone as well as estimates for pharmacokinetic parameters were listed and graphically presented, and the excretion analysis of total radioactivity in plasma, urine and feces were summarized. […]
smiles,measurement,setting,value
"Cc1nc2n(c(=O)c1CCN1CCC(c3noc4cc(F)ccc34)CC1)CCCC2O (stereo not drawn) [Paliperidone, paliperidone]","effect of genotype (CYP2D6, UGT1A1 or UGT1A6) on the plasma exposure of TR and UD",,No effect of genotype
same,share of UD excreted by means of filtration,"male, human",About 50%
same,CL renal,"male, human, CLR",53.1 ± 9.47 mL/min
same,Tmax,"male, human, po",1.33 ± 0.289 h
same,cumulative urinary excretion of unchanged paliperidone,"male, human, po, 7 days",59%
same,AUC,"male, human, po, AUC24",111 ± 22 ng·h/mL
same,AUC(0-inf),"male, human, po, AUC∞",187 ng·h/mL
same,Cmax,"male, human, po, Cmax",8.85 ng/mL
same,Tmax,"male, human, po, tmax",1.3 h
